Source: US20090192154A1, “SULTAM DERIVATIVES” (Asahi Kasei Pharma Corporation, priority 2007, published 2009)
Like-named read-outs stand apart in the source and are kept apart here.

What was measured:
Type in all cases: biochemical
[1] = target: T1, human recombinant ADAMTS-5 (Homo sapiens, UniProt Q9UNA0); experiment: Inhibitory action for ADAMTS-5 (aggrecanase) activity, FRET assay with aggrecan interglobular domain peptide; conditions: human recombinant ADAMTS-5, 37° C. for 60 minutes
T1 construct: human recombinant ADAMTS-5 in which 6×His tag was added to the C-end side of Asn624; 6xHis (C); made in house
T1 sequence (Q9UNA0 262-624 limits assumed): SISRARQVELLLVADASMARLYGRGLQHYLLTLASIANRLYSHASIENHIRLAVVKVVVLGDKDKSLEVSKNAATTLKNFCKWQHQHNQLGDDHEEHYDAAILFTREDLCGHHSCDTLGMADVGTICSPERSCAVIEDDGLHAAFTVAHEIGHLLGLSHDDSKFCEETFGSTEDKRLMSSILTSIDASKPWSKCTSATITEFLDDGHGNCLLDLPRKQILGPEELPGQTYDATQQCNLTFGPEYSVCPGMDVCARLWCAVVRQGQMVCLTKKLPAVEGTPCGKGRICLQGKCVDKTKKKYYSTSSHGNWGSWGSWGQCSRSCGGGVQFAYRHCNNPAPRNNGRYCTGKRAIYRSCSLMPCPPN
Experimental: The enzyme protein used for measurement of ADAMTS-5 activity was human recombinant ADAMTS-5. An insect cell line was prepared that stably expressed human recombinant ADAMTS-5 in which 6×His tag was added to the C-end side of Asn624. The culture supernatant of this cell line was collected, and the obtained culture supernatant was purified using Ni-NTA agarose (Qiagen)
A matrix peptide used for measurement of aggrecanase activity was Interglobular domain of human recombinant aggrecan. With reference to the method of Hughes, et al. (J. Biol. Chem. 272: pp. 20269-20274, 1997), the peptide of Thr331 to Gly457 of human aggrecan was contained, and the FLAG epitope peptide was added at the N-terminal, and the C-terminal was modified with biotin. This peptide was expressed using Escherichia coli, and the obtained Escherichia coli was subjected to lysis, and then the peptide was purified with an affinity column (Promega)
Desired concentration of the test compound was reacted in 40 μl of a mixed reaction solution containing 50 mmol/L Tris-HCl (pH 7.5), 100 mmol/L NaCl, 10 mmol/L CaCl2, 0.05% Brij35 and human recombinant ADAMTS-5 and Interglobular domain peptide of human recombinant aggrecan at 37° C. for 60 minutes. To the mixed reaction solution was added 10 μl of 0.2 mol/L EDTA to stop the enzyme reaction. Five μl of this mixed reaction solution was harvested and transferred to a 384 well plate. 0.2% Bovine albumin, cryptate-labeled Streptavidin (CIS bio) and XL 665-labeled anti-FLAG (M2) antibody (CIS bio) suitably diluted with PBS (−)-containing 800 mmol/L potassium fluoride were added thereto so that the amount of each of the added matters was 2.5 μl. The resultant solution was incubated at room temperature. After 60 minutes, the fluorescence value was measured at 340 nm excitation wavelength and 615 nm and 665 nm measurement wavelengths with a fluorescence plate reader. When the matrix peptide was not cleaved, the fluorescence resonance energy transfer from cryptate to XL665 occurs and long life fluorescence of 665 nm wavelength is generated. […] Therefore, the aggrecanase activity was calculated using the change of the ratio of the fluorescence value at 665 nm and the fluorescence value at 615 nm. […] The inhibitory action for aggrecanase activity was represented by IC50 value (μmol/L). Exp. No. in Table 2 represents Example number.

[2] = target: T2, activated human recombinant MMP-14 catalytic domain (Homo sapiens, UniProt P50281); experiment: Inhibitory action for MMP-14 activity, fluorescence peptide assay; conditions: 30° C. for 45 minutes
T2 construct: purchased Calbiochem
Experimental: (§1) Desired concentration of the test compound was reacted in 100 μl of a mixed reaction solution containing 50 mmol/L Tris-HCl (pH7.5), 150 mmol/LNaCl, 10 mmol/LCaCl2, 0.05% Brij35 and activated human recombinant MMP-14 catalytic domain (Calbiochem) and fluorescence peptide matrix (R&D) at 30° C. for 45 minutes. To the mixed reaction solution was added 10 μl of 0.2 mol/L EDTA to stop the enzyme reaction. Then, the fluorescence value was measured at 320 nm excitation wavelength and 405 nm measurement wavelength with a fluorescence plate reader.

[3] = target: T3, activated human recombinant MMP-3 (Homo sapiens, UniProt P08254); experiment: Inhibitory action for MMP-3 activity, fluorescence peptide assay; conditions: activated human recombinant MMP-3, 30° C. for 45 minutes
T3 construct: purchased R&D
T3 sequence (P08254 100-477): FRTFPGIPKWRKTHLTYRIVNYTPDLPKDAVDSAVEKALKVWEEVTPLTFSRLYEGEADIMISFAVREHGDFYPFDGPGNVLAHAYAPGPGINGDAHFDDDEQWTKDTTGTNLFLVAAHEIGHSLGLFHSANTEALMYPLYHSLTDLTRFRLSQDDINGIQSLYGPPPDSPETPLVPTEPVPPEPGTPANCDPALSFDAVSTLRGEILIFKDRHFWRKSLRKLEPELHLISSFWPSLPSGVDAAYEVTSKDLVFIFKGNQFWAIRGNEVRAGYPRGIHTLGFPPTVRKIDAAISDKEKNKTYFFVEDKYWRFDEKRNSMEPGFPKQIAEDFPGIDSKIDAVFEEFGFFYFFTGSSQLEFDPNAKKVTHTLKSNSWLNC
Experimental: as §1, with “MMP-3 (R&D)” for “MMP-14 catalytic domain (Calbiochem)”, “matrix Mca-ArgProLysProValGlu-Nval-TrpArgLys (Dnp) —NH2” for “matrix”

[4] = target: T4, activated human recombinant MMP-2 (Homo sapiens, UniProt P08253); experiment: Inhibitory action for MMP-2 activity, fluorescence peptide assay; conditions: activated human recombinant MMP-2, 30° C. for 45 minutes
T4 construct: purchased R&D
T4 sequence (P08253 110-660): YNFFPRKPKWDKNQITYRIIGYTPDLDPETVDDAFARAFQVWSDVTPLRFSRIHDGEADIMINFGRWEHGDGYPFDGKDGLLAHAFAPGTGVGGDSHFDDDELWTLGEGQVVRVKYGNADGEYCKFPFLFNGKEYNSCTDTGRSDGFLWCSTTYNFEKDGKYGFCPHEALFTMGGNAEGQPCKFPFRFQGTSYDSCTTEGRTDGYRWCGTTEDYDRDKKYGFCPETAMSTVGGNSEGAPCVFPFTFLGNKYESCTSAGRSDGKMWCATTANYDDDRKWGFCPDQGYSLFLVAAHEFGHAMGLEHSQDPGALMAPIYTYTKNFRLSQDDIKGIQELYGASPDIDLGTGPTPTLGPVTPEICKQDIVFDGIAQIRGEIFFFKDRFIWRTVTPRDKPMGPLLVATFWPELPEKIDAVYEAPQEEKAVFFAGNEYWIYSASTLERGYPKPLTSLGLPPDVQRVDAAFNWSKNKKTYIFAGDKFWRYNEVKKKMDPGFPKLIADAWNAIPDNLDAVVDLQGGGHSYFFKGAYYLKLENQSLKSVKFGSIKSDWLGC
Experimental: as §1, with “mmol/L NaCl,” for “mmol/LNaCl,”, “MMP-2 (R&D)” for “MMP-14 catalytic domain (Calbiochem)”, “matrix Mca-ProLeuGlyLeuDpaAlaArg-NH2” for “matrix”, “solution,” for “solution was added”, “EDTA was added” for “EDTA”

[5] = read-out: ADAMTS-5 inhibitory activity IC50 value

Compound: O=C(NO)C(C1CCCCC1)N1Cc2sc(-c3ccccc3)cc2S1(=O)=O (centres unmarked) [Example 13]
- IC50 ([1]; read-out: ADAMTS-5 IC50): 2000 nM

Compound: CCC(C(=O)O)N1Cc2sc(-c3ccc(C#Cc4ccccc4)cc3)cc2S1(=O)=O (centres unmarked) [Example 61]
- IC50 [1, 5]: ≤ 2000 nM

Compound: CCC(C(=O)O)N1Cc2sc(-c3ccc(-c4ccc5c(ccn5C)c4)cc3)cc2S1(=O)=O (centres unmarked) [Example 53]
- IC50 [1, 5]: ≤ 2000 nM

Compound: CCC(C(=O)O)N1Cc2cc(-c3ccc(COc4ccc(Oc5ccccc5)cc4)cc3)sc2S1(=O)=O (centres unmarked) [Example 104]
- IC50 [1, 5]: ≤ 2000 nM
- IC50 [2]: ≥ 30000 nM
- IC50 [3]: ≥ 30000 nM
- IC50 [4]: ≥ 30000 nM

Compound: CCC(C(=O)O)N1Cc2sc(-c3ccc(/C=C/c4ccc(C)cc4)cc3)cc2S1(=O)=O (centres unmarked) [Example 95]
- IC50 [1, 5]: ≤ 2000 nM

Compound: CCC(C(=O)O)N1Cc2sc(-c3ccc(/C=C/c4ccc(-c5ccccc5)cc4)cc3)cc2S1(=O)=O (centres unmarked) [Example 96]
- IC50 [1, 5]: ≤ 2000 nM
- IC50 [2]: ≥ 30000 nM
- IC50 [3]: ≥ 30000 nM
- IC50 [4]: ≥ 30000 nM

Compound: CCC(C(=O)NO)N1Cc2sc(-c3ccccc3)cc2S1(=O)=O (centres unmarked) [Example 18]
- IC50 [1, 5]: ≤ 2000 nM

Compound: CCC(C(=O)O)N1Cc2sc(-c3ccc(-c4cc5ccccc5[nH]4)cc3)cc2S1(=O)=O (centres unmarked) [Example 54]
- IC50 [1, 5]: ≤ 2000 nM

Compound: CCC(C(=O)O)N1Cc2sc(-c3ccc(OCc4ccccc4)c(F)c3)cc2S1(=O)=O (centres unmarked) [Example 113]
- IC50 [2]: ≥ 30000 nM
- IC50 [3]: ≥ 30000 nM
- IC50 [4]: ≥ 30000 nM

Compound: CCC(C(=O)O)N1Cc2sc(-c3ccc(-c4cncnc4)cc3)cc2S1(=O)=O (centres unmarked) [Example 56]
- IC50 [1, 5]: ≤ 2000 nM

Compound: CCC(C(=O)O)N1Cc2sc(-c3ccc(-c4ccc5c(cnn5C)c4)cc3)cc2S1(=O)=O (centres unmarked) [Example 102]
- IC50 [1, 5]: ≤ 2000 nM
- IC50 [2]: ≥ 30000 nM
- IC50 [3]: ≥ 30000 nM

Compound: CC(C(=O)NO)N1Cc2sc(-c3ccccc3)cc2S1(=O)=O (centres unmarked) [Example 11]
- IC50 ([1]; read-out: ADAMTS-5 IC50): 4000 nM

Compound: CCC(C(=O)O)N1Cc2sc(/C=C/c3ccc(-c4ccccc4)cc3)cc2S1(=O)=O (single isomer, unassigned) [Example 41]
- IC50 [1, 5]: ≤ 2000 nM

Compound: CC(C)C(C(=O)NO)N1Cc2sc(-c3ccccc3)cc2S1(=O)=O (centres unmarked) [Example 5]
- IC50 ([1]; read-out: ADAMTS-5 IC50): 2100 nM

Compound: CCC(C(=O)O)N1Cc2sc(-c3ccc(/C=C/c4ccc(Cl)cc4)cc3)cc2S1(=O)=O (centres unmarked) [Example 94]
- IC50 [1, 5]: ≤ 2000 nM

Compound: CCC(C(=O)NO)N1Cc2sc(-c3ccccc3)cc2S1(=O)=O (centres unmarked) [Example 12]
- IC50 ([1]; read-out: ADAMTS-5 IC50): 2000 nM

Compound: CCC(C(=O)O)N1Cc2sc(C#Cc3ccc(-c4ccccc4)cc3)cc2S1(=O)=O (centres unmarked) [Example 69]
- IC50 [1, 5]: ≤ 2000 nM

Compound: CCC(C(=O)O)N1Cc2sc(-c3ccc(/C=C/c4ccccc4)cc3)cc2S1(=O)=O (centres unmarked) [Example 30]
- IC50 [1, 5]: ≤ 2000 nM

Compound: CCC(C(=O)O)N1Cc2sc(-c3ccc(NC(=O)c4ccc(OCc5ccccc5)cc4)cc3)cc2S1(=O)=O (centres unmarked) [Example 147]
- IC50 [1, 5]: ≤ 2000 nM
- IC50 [2]: ≥ 30000 nM
- IC50 [3]: ≥ 30000 nM
- IC50 [4]: ≥ 30000 nM

Compound: CCC(C(=O)NO)N1Cc2sc(/C=C/c3ccc(-c4ccccc4)cc3)cc2S1(=O)=O (centres unmarked) [Example 26]
- IC50 [1, 5]: ≤ 2000 nM

Compound: CCC(C(=O)O)N1Cc2sc(/C=C/c3ccc(-c4ccccc4)cc3)cc2S1(=O)=O (centres unmarked) [Example 22]
- IC50 [1, 5]: ≤ 2000 nM

Compound: CCC(C(=O)O)N1Cc2sc(C#Cc3ccc(N(C)C)cc3)cc2S1(=O)=O (centres unmarked) [Example 66]
- IC50 [1, 5]: ≤ 2000 nM

Compound: CCC(C(=O)O)N1Cc2sc(-c3ccc(/C=C/c4ccc(OC)cc4)cc3)cc2S1(=O)=O (centres unmarked) [Example 60]
- IC50 [1, 5]: ≤ 2000 nM

Compound: CCC(C(=O)O)N1Cc2sc(-c3ccc(/C=C/c4ccsc4)cc3)cc2S1(=O)=O (centres unmarked) [Example 97]
- IC50 [1, 5]: ≤ 2000 nM

Compound: O=C(NO)C(c1ccccc1)N1Cc2sc(-c3ccccc3)cc2S1(=O)=O (centres unmarked) [Example 14]
- IC50 ([1]; read-out: ADAMTS-5 IC50): 7000 nM
